Measurements taken from patent publication US20250313574A1, “SIALIC ACID DERIVATIVES AND METHODS OF USING SAME” (EISAI R&D MANAGEMENT CO., LTD., priority 2022, published 2025).

How the values were obtained:
[1] = biological target: Recombinant human CD33 protein (Homo sapiens (Human), UniProt P20138); experiment: CD33 competitive binding assay for HTS drug screen (fluorescent multivalent sialic acid probe)
Method in brief: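 Inhibition was read as reduced retention of a fluorescent multivalent sialic acid complex (final 5 μM neutravidin, 15 μM A-375, 5 μM biotin-4-FITC) on plate-immobilized human CD33. Compound was added first, the probe followed for 30 min at room temperature in PBS with 0.2% Tween-20 and 0.5% BSA, and FITC was measured after a wash.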

[2] = biological target: Recombinant Human Siglec-3/CD33 protein (His-CD33) (Homo sapiens (Human), UniProt P20138); experiment: Differential scanning fluorimetry (DSF) thermal shift assay; type: binding
Recombinant Human Siglec-3/CD33 protein (His-CD33), sequence (P20138 18-259): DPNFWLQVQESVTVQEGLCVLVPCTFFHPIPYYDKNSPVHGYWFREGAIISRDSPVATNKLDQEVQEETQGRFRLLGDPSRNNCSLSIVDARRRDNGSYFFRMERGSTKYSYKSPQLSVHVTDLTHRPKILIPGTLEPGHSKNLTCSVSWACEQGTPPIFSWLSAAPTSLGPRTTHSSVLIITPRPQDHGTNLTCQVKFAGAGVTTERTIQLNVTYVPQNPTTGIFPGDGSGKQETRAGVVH

[3] = thermal melt shift of 0.5 μM CD33 protein with 50 μM compound
[4] = difference in thermal melt of CD33 protein (0.5 μM) with 50 μM compound

Recombinant human CD33 protein, sequence (P20138 18-259): as above

Row | SMILES | EC50 [1] [µM] | DSF (dTmD) [2, 3] | DSF (dTmD) [2, 4] [°C]
1 | CC(=O)N[C@H]1[C@H]([C@H](O)[C@H](O)CNC(=O)c2cc(C)c(O)c(C)c2)O[C@@](CCN2CCOC[C@@]23CCN(C(=O)C=C(C)C)C3)(C(=O)O)C[C@@H]1O [A-078] | 0.115 | 9.4 | –
2 | CC(=O)N[C@H]1[C@H]([C@H](O)[C@H](O)CNC(=O)c2cc(C)c(O)c(C)c2)O[C@@](C/C=C/c2cccc(CNC(=O)c3ccc4[nH]c(-c5c[nH]c6ccccc56)cc4c3)c2)(C(=O)O)C[C@@H]1O [A-250] | 3.26 | – | 8.4
3 | Cc1cc(C(=O)NC[C@@H](O)[C@@H](O)[C@@H]2O[C@@](C/C=C/c3cccc(CNC(=O)c4scnc4C)c3)(C(=O)O)C[C@H](O)[C@H]2NC(=O)Cn2cc(C3CCCCC3)nn2)cc(C)c1O [A-276] | 2.92 | – | 6.2
4 | CC(=O)N[C@H]1[C@H]([C@H](O)[C@H](O)CNC(=O)c2ccc(Cl)c(Cl)c2)O[C@@](CCN2CCOC[C@@]23CCN(C(=O)OC(C)(C)C)C3)(C(=O)O)C[C@@H]1O [A-186] | 0.127 | 10.8 | –
5 | Cc1cc2cc(C)c1OCCCNC(=O)CCCCCC[C@]1(C(=O)O)C[C@H](O)[C@@H](NC(=O)Cn3cc(C4CCCCC4)nn3)[C@@H](O1)[C@H](O)[C@H](O)CNC2=O [A-345] | 21.4 | – | 3.2
6 | CC(=O)N[C@H]1[C@H]([C@H](O)[C@H](O)CNC(=O)c2cc(C)c(O)c(C)c2)O[C@@](C/C=C/c2cccc(C3CCCN3C(=O)OC(C)(C)C)c2)(C(=O)O)C[C@@H]1O (stereo partly drawn) [A-295] | 6.64 | – | 4.0
7 | CC(=O)N[C@H]1[C@H]([C@H](O)[C@H](O)CNC(=O)c2cc(C)c(O)c(C)c2)O[C@@](CCN2CCN(C(C)=O)C[C@]23CCN(C(=O)OC(C)(C)C)C3)(C(=O)O)C[C@@H]1O [A-015] | 3.34 | 3.8 | –
8 | CC(=O)N[C@H]1[C@H]([C@H](O)[C@H](O)CNC(=O)c2ccc(=O)n(C)c2)O[C@@](CCN2CCOC[C@@]23CCN(C(=O)OC(C)(C)C)C3)(C(=O)O)C[C@@H]1O [A-170] | 3.87 | 6.0 | –
9 | Cc1cc(C(=O)NC[C@@H](O)[C@@H](O)[C@@H]2O[C@@](CC3OC(C)(C)O[C@H]3c3cccc(NC(=O)OC(C)(C)C)c3)(C(=O)O)C[C@H](O)[C@H]2NC(=O)Cn2cc(C3CCCCC3)nn2)cc(C)c1O (stereo partly drawn) [A-299] | 0.512 | – | 8.0
10 | CC(=O)N[C@H]1[C@H]([C@H](O)[C@H](O)CNC(=O)c2cc(C)c(O)c(C)c2)O[C@@](C/C=C/c2cccc(CNC(=O)C3CCC(Nc4ncccn4)CC3)c2)(C(=O)O)C[C@@H]1O (stereo partly drawn) [A-253] | 0.195 | – | 9.6
11 | CC(=O)N[C@H]1[C@H]([C@H](O)[C@H](O)CNC(=O)c2cc(C)c(OCCN)c(C)c2)O[C@@](CCN2CCCC[C@@]23CCN(C(=O)OC(C)(C)C)C3)(C(=O)O)C[C@@H]1O [A-027] | 0.064 | 10.4 | –
12 | COC(=O)[C@@]1(CCN2CCOC[C@@]23CCN(C(=O)OC(C)(C)C)C3)CCC[C@H](C[C@H](O)CNC(=O)c2cc(C)c3[nH]ccc3c2)O1 [A-206, tert-butyl (S)-6-(2-((2S,6R)-6-((S)-2-hydroxy-3-(7-methyl-1H-indole-5-carboxamido)propyl)-2-(methoxycarbonyl)tetrahydro-2H-pyran-2-yl)ethyl)-9-oxa-2,6-diazaspiro[4.5]decane-2-carboxylate] | > 100 | – | 0.1
13 | Cc1cc(C(=O)NC[C@@H](O)[C@@H](O)[C@@H]2O[C@@](C/C=C/c3cccc(CNC(=O)C4CCCC4)c3)(C(=O)O)C[C@H](O)[C@H]2NC(=O)Cn2cc(C3CCCCC3)nn2)cc(C)c1O [A-264] | 6.33 | – | 5.5
14 | CC(=O)N[C@H]1[C@H]([C@H](O)[C@H](O)CNC(=O)c2cc(C)c(O)c(C)c2)O[C@@](CCN2CCOC[C@@]23CCN(C(=O)C(C)(C)C)C3)(C(=O)O)C[C@@H]1O [A-097] | 0.43 | 8.25 | –
15 | CC(=O)N[C@H]1[C@H]([C@H](O)[C@H](O)CNC(=O)c2cc(C)c(O)c(C)c2)O[C@@](CC2OC(C)(C)O[C@H]2c2ccc(C)c(N3CCCC3=O)c2)(C(=O)O)C[C@@H]1O (stereo partly drawn) [A-319] | 4.22 | – | 2.8
16 | CC(=O)N[C@H]1[C@H]([C@H](O)[C@H](O)CNC(=O)c2cc(C)c(O)c(C)c2)O[C@@](CCN2CCOC[C@@]23CCN(C(=O)OC(C)(C)C)C3)(C(=O)NS(=O)(=O)c2ccccc2)C[C@@H]1O [A-368] | 15 | – | −0.1
17 | CC(=O)N[C@H]1[C@H]([C@H](O)[C@H](O)CNC(=O)c2cc(C)c(O)c(C)c2)O[C@@](CCN2CCOC[C@@]23CCN(C(=S)NC2CC2)C3)(C(=O)O)C[C@@H]1O [A-058] | 1.38 | 5.0 | –
18 | Cc1cc(C(=O)NC[C@@H](O)[C@@H](O)[C@@H]2O[C@@](CC(O)[C@@H](O)c3cccc(NC(=O)OC(C)(C)C)c3)(C(=O)O)C[C@H](O)[C@H]2NC(=O)Cn2cc(C3CCCCC3)nn2)cc(C)c1O (stereo partly drawn) [A-300] | 44.6 | – | 1.6

Row | SMILES | EC50 [1] [µM] | DSF (dTmD) [2, 3] | DSF (dTmD) [2, 4] [°C]
19 | CC(=O)N[C@H]1[C@H]([C@H](O)[C@H](O)CNC(=O)c2c[nH]c(C)n2)O[C@@](CCN2CCOC[C@@]23CCN(C(=O)OC(C)(C)C)C3)(C(=O)O)C[C@@H]1O [A-139] | 0.61 | 6.2 | –
20 | CNC(=O)c1cccc(COC(=O)NCC(=O)NC2CCCCC2O[C@]2(C(=O)O)C[C@H](O)[C@@H](NC(=O)Cn3cc(C4CCCCC4)nn3)[C@H]([C@H](O)[C@H](O)CNC(=O)c3cc(C)c(O)c(C)c3)O2)c1 (stereo partly drawn) [A-327] | 6.61 | – | 3.2
21 | CC(=O)N[C@H]1[C@H]([C@H](O)[C@H](O)CNC(=O)c2cc(C)c(O)c(C)c2)O[C@@](CCN2CCOC[C@@]23CCN(C(=O)OC(C)(C)C)C3)(C(=O)NS(C)(=O)=O)C[C@@H]1O [A-365] | 37.5 | – | −0.3
22 | CC(=O)N[C@H]1[C@H]([C@H](O)[C@H](O)CNC(=O)c2cc(C)c(O)c(C)c2)O[C@@](CCN2CCNC[C@@]23CCN(C(=O)OC(C)(C)C)C3)(C(=O)O)C[C@@H]1O [A-012] | 0.022 | 12.6 | –
23 | CC(=O)N[C@H]1[C@H]([C@H](O)[C@H](O)CNC(=O)c2ccc3c(c2)N(C)C(=O)CO3)O[C@@](CCN2CCOC[C@@]23CCN(C(=O)OC(C)(C)C)C3)(C(=O)O)C[C@@H]1O [A-150] | 0.219 | 9.6 | –
24 | CC(=O)N[C@H]1[C@H]([C@H](O)[C@H](O)CNC(=O)c2cc(C)c(O)c(C)c2)O[C@@](C/C=C/c2cccc(CNC(=O)C3CCCC(Nc4ccc(C)cn4)C3)c2)(C(=O)O)C[C@@H]1O (stereo partly drawn) [A-259] | 5.81 | – | 3.1
25 | Cc1cc(C(=O)NC[C@@H](O)[C@@H](O)[C@@H]2O[C@@](OC3CCCCC3NC(=O)CNC(=O)OCc3ccccc3)(C(=O)O)C[C@H](O)[C@H]2NC(=O)Cn2cc(C3CCCCC3)nn2)cc(C)c1O (stereo partly drawn) [A-324] | 3.67 | – | 3.2
26 | CC(=O)Nc1ccc(C(=O)NC[C@@H](O)[C@@H](O)[C@@H]2O[C@@](CCN3CCOC[C@@]34CCN(C(=O)OC(C)(C)C)C4)(C(=O)O)C[C@H](O)[C@H]2NC(C)=O)cc1 [A-184] | 1.09 | 6.0 | –
27 | Cc1cc(C(=O)NC[C@@H](O)[C@@H](O)[C@@H]2O[C@@](C/C=C/c3cccc(CNC(=O)OC(C)(C)C)c3)(C(=O)O)C[C@H](O)[C@H]2NC(=O)Cn2cc(C3CCCCC3)nn2)cc(C)c1O [A-285] | 9.98 | – | 9.0
28 | CC(=O)N[C@H]1[C@H]([C@H](O)[C@H](O)CNC(=O)c2cc(C)oc2C(F)(F)F)O[C@@](CCN2CCOC[C@@]23CCN(C(=O)OC(C)(C)C)C3)(C(=O)O)C[C@@H]1O [A-160] | 0.68 | 8.0 | –
29 | Cc1cc(C(=O)NC[C@@H](O)[C@@H](O)[C@@H]2O[C@@](OCCOCCNC(=O)OCc3ccccc3)(C(=O)O)C[C@H](O)[C@H]2NC(=O)Cn2cc(C3CCCCC3)nn2)cc(C)c1O [A-323] | 10.9 | – | 4.4
30 | CC(=O)N[C@H]1[C@H]([C@H](O)[C@H](O)CNC(=O)c2cc(C)c(O)c(C)c2)O[C@@](CCN2CCOC[C@@]23CCN(C(=O)N2CCC(F)(F)CC2)C3)(C(=O)O)C[C@@H]1O [A-065] | 0.739 | 6.1 | –
31 | CC(=O)N[C@H]1[C@H]([C@H](O)[C@H](O)CNC(=O)c2cc(C)c(C(N)=O)c(C)c2)O[C@@](CCN2CCOC[C@@]23CCN(C(=O)OC(C)(C)C)C3)(C(=O)O)C[C@@H]1O [A-141] | 0.35 | 7.0 | –
32 | CC(=O)N[C@H]1[C@H]([C@H](O)[C@H](O)CNC(=O)c2cnc3[nH]nc(C)c3c2)O[C@@](CCN2CCOC[C@@]23CCN(C(=O)OC(C)(C)C)C3)(C(=O)O)C[C@@H]1O [A-127] | 0.059 | 11.7 | –
33 | CC(=O)N[C@H]1[C@H]([C@H](O)[C@H](O)CNC(=O)c2cc(C)c(O)c(C)c2)O[C@@](CC2OC(C)(C)O[C@H]2c2cccc(C(=O)NCc3ccccc3)c2)(C(=O)O)C[C@@H]1O (stereo partly drawn) [A-311] | 6.36 | – | 0.5
34 | Cc1cc(C(=O)NC[C@@H](O)[C@@H](O)[C@@H]2O[C@@](C/C=C/c3cccc(CNC(=O)c4ccn(-c5ccccn5)n4)c3)(C(=O)O)C[C@H](O)[C@H]2NC(=O)Cn2cc(C3CCCCC3)nn2)cc(C)c1O [A-275] | 8.63 | – | 7.0
35 | CC(=O)N[C@H]1[C@H]([C@H](O)[C@H](O)CNC(=O)c2cc(C)c(O)c(C)c2)O[C@@](CCN2CCOC[C@@]23CCN(C(=O)c2ccccc2)C3)(C(=O)O)C[C@@H]1O [A-101] | 0.921 | 7.4 | –
36 | CC(=O)N[C@H]1[C@H]([C@H](O)[C@H](O)CNC(=O)c2cc(C)c(O)c(C)c2)O[C@@](CC2OC(C)(C)O[C@H]2c2cccc(N3CCCCC3=O)c2)(C(=O)O)C[C@@H]1O (stereo partly drawn) [A-316] | 4.86 | – | 3.8
